Patent publication US20210276967A1 (OSPEDALE SAN RAFFAELE S.R.L., priority 2018, published 2021)

Tests used:
[1] = Hepatocytes stability, human; format: in vitro ADME; settings: data not shown
Method: Hepatic metabolism is often a major contributor to drug clearance from the body. Pooled cryopreserved human hepatocytes (commercially available for example from Bioreclamation IVT, LiverPool 20-donor Human Hepatocytes Product. No. X008000) are thawed and re-suspended in Hepatocyte Culture Medium (HCM) complete (commercially available, as for example from Lonza, HBM Hepatocytes Basal Medium Catalog No. CC-3199+HCM SingleQuots Catalog No. CC-4182). Compounds are diluted into the cell suspension (2.5 μl/2.5 mL, 1 million cells/mL) from 3 mM stock solution in DMSO to give a 3 μM concentration (0.1% DMSO). 150 μl (×2) of this mixture are taken and transferred into a 96-deep-well plate containing an equal volume of quenching solution (100% acetonitrile plus 0.1% formic acid) for time 0 incubation. […]
Stability is determined based on analysis of the disappearance of the compound as a function of incubation time, using area ratio (analyte peak area vs internal standard peak area). The elimination constant k is calculated by plotting mean disappearance values on a semi-logarithmic scale and fitting with a best fit linear regression. […] When the half-life could not be calculated, data are reported as: <0.5 or >4 hours. Intrinsic clearance given in μl/min/million cells is calculated using the Equation: Clint=KV/N. Where K=0.693/t1/2, V=incubation volume (ml) and N=number of hepatocytes/sample.

HBV genotype A = assay: Antiviral activity in HepG2 cells transfected with HBV genotype A plasmid, extracellular HBV DNA qPCR; format: cell-based; settings: Hepatitis B virus, read-out: HBV inhibition EC50 (Mean ± StD)
Method: (§1) HepG2 hepatoma cells transfected with HBV plasmids corresponding to the different isolates were used to perform antiviral assay against different HBV genotypes. HBV plasmids were obtained by cloning fragment containing of 1.1-mer HBV genome into the SacI/SaII sites of pcDNA3.1zeo(−) plasmid (V86520, Thermofisher Scientific). The HepG2 cell line was maintained in DMEM, supplemented with 10% of FBS, 1% glutamine and 1% penicillin/streptomycin.
(§2) HBV inhibition activity was determined on different HBV genotypes. For this purpose plasmids pcDNA3.1Zeo(−)-HBV1.1 expressing HBV genotypes A, B, C, D, E were transfected in HepG2 cell line and extracellular HBV quantification was performed by direct qPCR as described above. In detail, cells were seeded at 20,000 cells/well in polylisine coated 96-multiwell plates and 24 h later HBV plasmids were transfected with lipofection using manufacturer's procedure (Lipofectamine 3000 Reagent, Thermofisher Scientific). Five hours after transfection cells were extensively washed with PBS and compounds were added in 8-point dose-response curve in 0.5% DMSO as described above. After 4 days of incubation at 37° C. cells were subjected to cell viability assays and extracellular HBV quantification, in order to evaluate both the cytotoxic potential and the anti-viral activity of compounds, as described above. […]

HBV genotype B = assay: Antiviral activity in HepG2 cells transfected with HBV genotype B plasmid, extracellular HBV DNA qPCR; format: cell-based; settings: Hepatitis B virus, HepG2, read-out: HBV inhibition EC50 (Mean ± StD, μM)
Method: as §1, §2

Which “stability in human hepatocytes” value [1] does the source give for `Nc1ccc(C(=O)Nc2cc(F)c(F)c(F)c2)cc1S(N)(=O)=O` [Example E3, 4-amino-3-sulfamoyl-N-(3,4,5-trifluorophenyl)benzamide] here?
The value was “stable”.

With `Cc1cc(N)c(S(N)(=O)=O)cc1C(=O)Nc1cc(F)c(F)c(F)c1` [Example E17, 4-amino-2-methyl-5-sulfamoyl-N-(3,4,5-trifluorophenyl)benzamide] as the compound, how does the EC50 (HBV genotype A) read?
The EC50 was 58.2 ± 25.4 nM.

And the EC50 (HBV genotype B)?
The EC50 was 0.0498 ± 0.0179 µM.
